Experimental data reported in patent US20080132417A1, “Molecular Basis For The Identification Of Chemotherapy Resistance In Human Tumors And The Treatment Thereof” (THE UAB RESEARCH FOUNDATION, priority 2004, published 2008).
Converted amounts (≈) assume the structure as drawn. Blank lines part the entries; values can stand above or below the molecule they belong to.

Experiments:
Assay type in all cases: cell-based, human
[1] = system: SW948 cells; test: Cell proliferation assay, sensitivity of SW948 to various drugs; conditions: SW948 parental cells, 24 h drug exposure, cells counted day 4, mean ± SD of 1-4 assays; for IC50: Homo sapiens, read-out: mean IC50 dose, SW948
Procedure: (§1) Determination of cross-resistance was determined by cell proliferation assay. SW948, SW948CPTH or SW948CPTL cells were plated in 24-well tissue culture plates and allowed to grow for 24 h at which time the drugs were added at various doses ranging from 0-80 μg/ml. Then 24 h later, the culture medium was removed, and the cells were washed once with PBS followed by the addition of drug-free culture medium. Cells were counted on day 4 using a cell counter (Beckman Coulter, Fullerton, Calif.). The data were analyzed with Microsoft Excel (Microsoft Corp., Redmond, Wash.) using an exponential regression model to determine the IC50 dose.

[2] = system: SW948CPTL cells; test: Cell proliferation assay, cross-resistance of SW948CPTL; conditions: for IC50: Homo sapiens, read-out: mean IC50 dose, SW948CPTL; for resistance of SW948CPTL cells (in words): compared to SW948; for fold change, SW948CPTL: fold change of IC50 vs SW948 (in brackets); for mean IC50 dose, SW948CPTL: SW948CPTL cells, without CPT-11 for >28 days, 24 h drug exposure, counted day 4, mean ± SD
Procedure: as §1

[3] = system: SW948CPTH cells; test: Cell proliferation assay, cross-resistance of SW948CPTH; conditions: for IC50: Homo sapiens, read-out: mean IC50 dose, SW948CPTH; for cross-resistance of SW948CPTH cells (in words): compared to SW948; for mean IC50 dose, SW948CPTH: SW948CPTH cells, without CPT-11 for >22 days, 24 h drug exposure, counted day 4, mean ± SD; for fold change, SW948CPTH: fold change of IC50 vs SW948 (in brackets)
Procedure: as §1

SMILES: O=c1[nH]cc(F)c(=O)[nH]1 [5-FU, 5-fluorouracil]
IC50 [1]: 0.61 ± 0.1 µg/mL (≈ 4.69 µM) | IC50 [2]: 0.75 ± 0.02 µg/mL (≈ 5.77 µM) | resistance of SW948CPTL cells (in words) [2]: no resistance | IC50 [3]: 0.54 ± 0.2 µg/mL (≈ 4.15 µM) | cross-resistance of SW948CPTH cells (in words) [3]: No resistant

SMILES: CC[C@@]1(O)C(=O)OCc2c1cc1n(c2=O)Cc2cc3cc(O)ccc3nc2-1 [10-OH-CPT]
mean IC50 dose, SW948 [1]: 0.25 ± 0.16 µg/mL | mean IC50 dose, SW948CPTH [3]: 1.7 ± 0.3 µg/mL | cross-resistance of SW948CPTH cells (in words) [3]: cross-resistant | fold change, SW948CPTH [3]: 7

SMILES: CC[C@@]1(O)C(=O)OCc2c1cc1n(c2=O)Cc2cc3ccccc3nc2-1 [CPT, camptothecin]
IC50 [1]: 0.057 ± 0.02 µg/mL (≈ 0.164 µM) | IC50 [2]: 0.14 µg/mL (≈ 0.402 µM) | resistance of SW948CPTL cells (in words) [2]: showed resistance | fold change, SW948CPTL [2]: 2.4 | IC50 [3]: 0.32 ± 0.02 µg/mL (≈ 0.919 µM) | cross-resistance of SW948CPTH cells (in words) [3]: cross-resistant | fold change, SW948CPTH [3]: 6

SMILES: CCc1c2c(nc3ccc(OC(=O)N4CCC(N5CCCCC5)CC4)cc13)-c1cc3c(c(=O)n1C2)COC(=O)[C@]3(O)CC [CPT-11]
mean IC50 dose, SW948 [1]: 3.0 ± 0.3 µg/mL | resistance of SW948CPTL cells (in words) [2]: showed resistance | mean IC50 dose, SW948CPTH [3]: 38 ± 6.9 µg/mL | cross-resistance of SW948CPTH cells (in words) [3]: cross-resistant

SMILES: N.N.[Cl][Pt][Cl] [Cisplatin, cisplatin]
mean IC50 dose, SW948 [1]: 1.3 ± 0.34 µg/mL | mean IC50 dose, SW948CPTL [2]: 2.2 ± 1.3 µg/mL | resistance of SW948CPTL cells (in words) [2]: showed resistance | fold change, SW948CPTL [2]: 1.7 | mean IC50 dose, SW948CPTH [3]: 1.5 ± 0.15 µg/mL | cross-resistance of SW948CPTH cells (in words) [3]: No resistant

SMILES: COc1cc([C@@H]2c3cc4c(cc3[C@@H](O[C@@H]3O[C@@H]5CO[C@@H](C)O[C@H]5[C@H](O)[C@H]3O)[C@H]3COC(=O)[C@H]23)OCO4)cc(OC)c1O [Etoposide, etoposide]
IC50 [1]: 0.8 ± 0.1 µg/mL (≈ 1.36 µM) | IC50 [2]: 1.6 ± 0.2 µg/mL (≈ 2.72 µM) | resistance of SW948CPTL cells (in words) [2]: showed resistance | fold change, SW948CPTL [2]: 2 | IC50 [3]: 0.7 ± 0.2 µg/mL (≈ 1.19 µM) | cross-resistance of SW948CPTH cells (in words) [3]: not cross-resistant

SMILES: CCc1c2c(nc3ccc(O)cc13)-c1cc3c(c(=O)n1C2)COC(=O)[C@]3(O)CC [SN38]
mean IC50 dose, SW948 [1]: 0.19 ± 0.01 µg/mL | mean IC50 dose, SW948CPTL [2]: 1.7 ± 0.15 µg/mL | resistance of SW948CPTL cells (in words) [2]: showed resistance | fold change, SW948CPTL [2]: 9 | mean IC50 dose, SW948CPTH [3]: 1.5 ± 0.13 µg/mL | cross-resistance of SW948CPTH cells (in words) [3]: cross-resistant | fold change, SW948CPTH [3]: 8

Further lines, with some results ahead:

IC50 [3]: 0.048 ± 0.008 µg/mL (≈ 0.0883 µM)
SMILES: COc1cccc2c1C(=O)c1c(O)c3c(c(O)c1C2=O)C[C@@](O)(C(=O)CO)C[C@@H]3O[C@H]1C[C@H](N)[C@H](O)[C@H](C)O1 [Doxorubicin, doxorubicin]
IC50 [1]: 0.037 ± 0.008 µg/mL (≈ 0.0681 µM) | cross-resistance of SW948CPTH cells (in words) [3]: No resistant

IC50 [2]: 0.016 µg/mL (≈ 0.0608 µM) | IC50 [3]: 0.008 ± 0.004 µg/mL (≈ 0.0304 µM)
SMILES: Nc1ccn([C@@H]2O[C@H](CO)[C@@H](O)C2(F)F)c(=O)n1 [Gemcitabine, gemcitabine]
IC50 [1]: 0.009 ± 0.004 µg/mL (≈ 0.0342 µM) | resistance of SW948CPTL cells (in words) [2]: showed resistance | fold change, SW948CPTL [2]: 1.8 | cross-resistance of SW948CPTH cells (in words) [3]: No resistant

IC50 [3]: 0.84 ± 0.21 µg/mL (≈ 3.47 µM)
SMILES: CC1(C)CCC2=C(O1)c1ccccc1C(=O)C2=O [Lapachone]
IC50 [1]: 1.06 ± 0.16 µg/mL (≈ 4.38 µM) | cross-resistance of SW948CPTH cells (in words) [3]: not cross-resistant
